Assays:
[1] = system: SMN2 Full reporter; test: SMN2 Full reporter gene assay (luciferase) in NSC34 stable line; format: cell-based; details: NSC-34, Biological Example 2, 24 hours, BrightGlo, read-out: SMN Activity (EC50)
From the text: SMN2 Full Reporter Construct:
pSMN2 Splicing Luciferase reporter was constructed according to Zhang et al., (An in vivo reporter system for measuring increased inclusion of exon 7 in SMN2 mRNA: potential therapy of SMA. Gene Ther. 2001 October; 8(20):1532-8) via overlapping PCR. The final PCR fragment containing Exon6-Intron6-Exon7 (with a C insertion before 49T)-Intron7-Exon8-Luciferase was inserted to BamHI and NotI site of pCAG-IRESblast expression vector (Chen et al., Establishment and Maintenance of Genomic Methylation Patterns in Mouse Embryonic Stem Cells by Dnmt3a and Dnmt3b. Mol Cell Biol. 2003 August; 23(16):5594-605).
Human SMN2 exon1-exon6 cDNA were amplified by PCR (Forward primer: […]; reverse primer: […]), and Exon6-Intron6 (Forward primer: […]; reverse primer: […]) were fused by overlap PCR to create Exon1-Intron6 fragment, and was inserted into pSMN2 splicing Luciferase reporter via BamHI and HindIII sites to create pSMN2 exon1-6 splicing reporter. SMN2 promoter 5.1 kb fragment was amplified from human genomic DNA by PCR (Forward primer: […]; reverse primer: […]), and inserted between MluI site and BamHI site (Blunted using DNA blunting kit, Takara, Cat #6025) of pSMN2 exon1-6 splicing reporter to replace chicken β-actin promoter and the human cytomegalovirus immediate early enhancer, to finalize the pSMN2-Full-reporter.
SMN2 Full Reporter Stable Clone in NSC34 Cells:
pSMN2-Full reporter was stably transfected into NSC34 cells using Lipofectamine 2000, which were subsequently selected in blasticidin-containing medium for two weeks. Blasticidin-resistant colonies were screened by Luciferase signal and response to SAHA as well as by RT-PCR for alternative splicing of Exon7.
NSC34 SMN2 Full reporter stable line was cultured in DMEM (Invitrogen, Cat:11965)+10% FBS+7 μg/ml Blasticidin. Cells in culture media without Blasticidin were seeded into a 384-well plate at a density of 6000 cells/well and treated with compounds for 24 hours. Luciferase signal was assessed by BrightGlo assay. Eequal volume of BrightGlo reagent (Promega, Cat #E2620) was added to the cells and incubated for 10 minutes at room temperature. Luminescent signal was read in either BioTek or Envision plate reader.
Reporter gene assay conditions: compound concentration range 3 nM-10 uM.

[2] = system: SMN protein; test: cellular SMN ELISA (SMN protein elevation) in myoblast cell line from SMNdelta7 mouse model; format: cell-based; details: for SMN Activity (fold activation over DMSO control) / EC50: Biological Example 1, SMN ELISA, SMNdelta7 mouse myoblasts, 24 hours compound treatment; for EC50: read-out: SMN Activity (EC50)
Method in brief: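 SMNdelta7 mouse myoblasts were treated with compounds for 24 h (20 nM–10 uM or 100 pM–10 uM), lysed in modified RIPA buffer, and SMN quantified by sandwich ELISA with HRP/TMB read at 450 nm. Values are fold activation over DMSO control and EC50.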

Compound | EC50 [1] [nM] | other results
CCCc1cc2cc(O)c(-c3ccc(OC4CC(C)(C)NC(C)(C)C4)nn3)cc2cn1 [Example 36-5, 3-propyl-7-(6-((2,2,6,6-tetramethylpiperidin-4-yl)oxy)-pyridazin-3-yl)isoquinolin-6-ol] | 580 | –
CN(c1ccc(-c2cc3cnc(C4CC4)cc3cc2O)nn1)C1CC(C)(C)NC(C)(C)C1 [Example 36-3, 3-cyclopropyl-7-(6-(methyl(2,2,6,6-tetramethyl-piperidin-4-yl)amino)pyridazin-3-yl)isoquinolin-6-ol] | 30 | –
CN(c1ccc(-c2cc3cnn(C)c3cc2O)nn1)C1CC(C)(C)NC(C)(C)C1 [Example 34-2, 1-methyl-5-(6-(methyl(2,2,6,6-tetramethylpiperidin-4-yl)amino)pyridazin-3-yl)-1H-indazol-6-ol] | 220 | –
CN(c1ccc(-c2cc3cn(C)nc3cc2O)nn1)C1CC(C)(C)NC(C)(C)C1 [Example 34-1, 2-methyl-5-(6-(methyl(2,2,6,6-tetramethylpiperidin-4-yl)amino)pyridazin-3-yl)-2H-indazol-6-ol] | 150 | –
Cc1cc2cc(O)c(-c3ccc(N(C)C4CC(C)(C)NC(C)(C)C4)nn3)cc2c(C)n1 [Example 29-3, 1,3-dimethyl-7-(6-(methyl(2,2,6,6-tetramethylpiperidin-4-yl)amino)pyridazin-3-yl)isoquinolin-6-ol] | 40 | –
CC(C)c1cc2cc(O)c(-c3ccc(N(C)C4CC(C)(C)NC(C)(C)C4)nn3)cc2cn1 [Example 36-4, 3-isopropyl-7-(6-(methyl(2,2,6,6-tetramethyl-piperidin-4-yl)amino)pyridazin-3-yl)isoquinolin-6-ol] | 190 | –
CN(c1ccc(-c2cc3c(N)nccc3cc2O)nn1)C1CC(C)(C)NC(C)(C)C1 [Example 31-1, 1-amino-7-(6-(methyl(2,2,6,6-tetramethylpiperidin-4-yl)amino)pyridazin-3-yl)isoquinolin-6-ol] | 25 | –
CCn1ccc2cc(O)c(-c3ccc(OC4CC(C)(C)NC(C)(C)C4)nn3)cc2c1=O [Example 35-2, 2-ethyl-6-hydroxy-7-(6-((2,2,6,6-tetramethylpiperidin-4-yl)oxy)pyridazin-3-yl)isoquinolin-1(2H)-one] | 363 | –
Cc1cc2cc(-c3ccc(N(C)C4CC(C)(C)NC(C)(C)C4)nn3)c(O)cc2c(C#N)n1 [Example 30-1, 7-hydroxy-3-methyl-6-(6-(methyl(2,2,6,6-tetramethylpiperidin-4-yl)amino)pyridazin-3-yl)isoquinoline-1-carbonitrile] | 30 | –
CN(c1ccc(-c2cc3[nH]c(=O)oc3cc2O)nn1)C1CC(C)(C)NC(C)(C)C1 [Example 33-1, 6-hydroxy-5-(6-(methyl(2,2,6,6-tetramethylpiperidin-4-yl)amino)pyridazin-3-yl)benzo[d]oxazol-2(3H)-one] | 3000 | –
CC(C)c1cc2cc(O)c(-c3ccc(OC4CC(C)(C)NC(C)(C)C4)nn3)cc2cn1 [Example 36-6, 3-isopropyl-7-(6-((2,2,6,6-tetramethylpiperidin-4-yl)oxy)-pyridazin-3-yl)isoquinolin-6-ol] | 640 | –
CN(c1ccc(-c2cc3c(=O)n(C)c(=O)n(C)c3cc2O)nn1)C1CC(C)(C)NC(C)(C)C1 [Example 32-1, 7-hydroxy-1,3-dimethyl-6-(6-(methyl(2,2,6,6-tetramethylpiperidin-4-yl)amino)pyridazin-3-yl)quinazoline-2,4(1H,3H)-dione] | 133 | –
CN(c1ccc(-c2cc3cc(C4CCOCC4)cnc3cc2O)nn1)C1CC(C)(C)NC(C)(C)C1 [Example 14-1, 6-(6-(methyl(2,2,6,6-tetramethylpiperidin-4-yl)amino)pyridazin-3-yl)-3-(tetrahydro-2H-pyran-4-yl)quinolin-7-ol] | – | SMN Activity (fold activation over DMSO control) [2]: 2.91 fold; EC50 [2]: 63 nM
CN(c1ccc(-c2cc3c(=O)n(C)ccc3cc2O)nn1)C1CC(C)(C)NC(C)(C)C1 [Example 35-1, 6-hydroxy-2-methyl-7-(6-(methyl(2,2,6,6-tetramethylpiperidin-4-yl)amino)pyridazin-3-yl)isoquinolin-1(2H)-one] | – | SMN Activity (fold activation over DMSO control) [2]: 2.43 fold; EC50 [2]: 3 nM
CCOc1cc2nccnc2cc1-c1ccc(N(C)C2CC(C)(C)NC(C)(C)C2)nn1 [drawing 139 R = OEt, 6-(7-Ethoxyquinoxalin-6-yl)-N-methyl-N-(2,2,6,6-tetramethylpiperidin-4-yl)pyridazin-3-amine] | – | SMN ELISA EC50 ([2]; comparison of unsubstituted, ortho-hydroxy and ortho-alkoxy pyridazines, as in Biological Example 1): Inactive
CN(c1ccc(-c2cc3ccc(=O)n(C)c3cc2O)nn1)C1CC(C)(C)NC(C)(C)C1 [Example 9-2, 7-hydroxy-1-methyl-6-(6-(methyl(2,2,6,6-tetramethylpiperidin-4-yl)amino)pyridazin-3-yl)quinolin-2(1H)-one] | – | SMN Activity (fold activation over DMSO control) [2]: 2.25 fold; EC50 [2]: 7 nM

Reference: patent US11672799B2, “1,4-disubstituted pyridazine quinolne analogs there of and methods for treating SMN-deficiency-related conditions” (Novartis AG, priority 2013, dated 2023)
